Results published in patent US6191135A, “Neurokinin antagonists” (Boehringer Ingelheim KG, priority 1994, dated 2001).

Biological target: T1, NK1 -receptor (substance P-receptor) (Homo sapiens, UniProt P25103)
T1 construct: intact human lymphoblastoma cells (IM-9) which express NK1 -receptors; endogenous in cells; host or cells: IM-9 human lymphoblastoma cells
Test: NK1-receptor affinity: displacement of 125I labelled substance P on intact human lymphoblastoma cells (IM-9)
Type: binding
Conditions: intact human lymphoblastoma cells (IM-9) expressing NK1-receptors, read-out: Ki
Protocol: The receptor affinity for the NK1 -receptor (substance P-receptor) was determined on intact human lymphoblastoma cells (IM-9) which express NK1 -receptors, and the displacement of ^125 I labelled substance P was measured.

T1 sequence (P25103 whole entry): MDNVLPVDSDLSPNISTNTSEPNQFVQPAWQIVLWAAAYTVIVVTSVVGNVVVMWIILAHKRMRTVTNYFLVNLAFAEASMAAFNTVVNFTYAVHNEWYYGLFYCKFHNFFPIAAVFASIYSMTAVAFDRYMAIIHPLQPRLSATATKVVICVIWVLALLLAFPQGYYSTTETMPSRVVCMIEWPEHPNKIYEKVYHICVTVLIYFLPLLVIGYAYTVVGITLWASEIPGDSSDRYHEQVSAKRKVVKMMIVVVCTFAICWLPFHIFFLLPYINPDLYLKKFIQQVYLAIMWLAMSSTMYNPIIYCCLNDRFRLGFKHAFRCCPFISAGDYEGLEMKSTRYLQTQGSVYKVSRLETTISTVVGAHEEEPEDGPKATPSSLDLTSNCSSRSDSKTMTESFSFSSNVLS

Row | Ki [nM] | Structure (SMILES)
1 | 43 | COc1ccccc1C(CNCc1cc(C(F)(F)F)cc(C(F)(F)F)c1)N1CCCCC1C (stereo not shown) [Example 80, 3,5-Bistrifluoromethylbenzyl-[2-(2-methoxyphenyl)-2-(2-methylpiperidine-1-yl)-ethyl]-amine]
2 | 173 | COc1ccccc1C(CNC(=O)Nc1cc(C(F)(F)F)cc(C(F)(F)F)c1)N1CC(C)CC(C)C1 (stereo not shown) [Example 172]
3 | 24 | COc1ccccc1C(CNC(=O)Nc1cc(C(F)(F)F)cc(C(F)(F)F)c1)N1CCN(C2CCCCC2)CC1 (stereo not shown) [Example 116, N-3,5-Bistrifluoromethylphenyl-N'-[2-(2-methoxyphenyl)-2-(4-cyclohexylpiperazine-1-yl)-ethyl]-urea]
4 | 102 | COc1ccccc1C(CNCc1cc(C(F)(F)F)cc(C(F)(F)F)c1)N1CCN(c2ccccn2)CC1 (stereo not shown) [Example 28, 3,5-Bistrifluoromethylbenzyl-[2-(2-methoxyphenyl)-2-(4-(2-pyridyl)-piperazine-1-yl)-ethyl]-amine]
5 | 520 | COc1ccccc1C(CNCc1cc(C(F)(F)F)cc(C(F)(F)F)c1)N1CCN(c2cccc(C)c2C)CC1 (stereo not shown) [Example 20, 3,5-Bistrifluoromethylbenzyl-[2-(2-methoxyphenyl)-2-(4-(2,3-dimethylphenyl)-piperazine-1-yl)-ethyl]-amine]
6 | 30 | O=C(NCC(c1ccccc1)N1CCN(C2CCCCC2)CC1)Nc1cc(C(F)(F)F)cc(C(F)(F)F)c1 (stereo not shown) [Example 115, N-3,5-Bistrifluoromethylphenyl-N'-[2-phenyl-2-(4-cyclohexylpiperazine-1-yl)-ethyl]-urea]
7 | 23 | COc1ccccc1C(CNCCc1cc(C(F)(F)F)cc(C(F)(F)F)c1)N1CCN(C2CCCCC2)CC1 (stereo not shown) [Example 66, 2-(3,5-Bistrifluoromethylphenyl)-2'-(2-methoxyphenyl)-2'-(4-cyclohexylpiperazine-1-yl)-diethylamine]
8 | 154 | COc1ccccc1C(CNCc1cc(C(F)(F)F)cc(C(F)(F)F)c1)N1CCN(Cc2ccccc2)CC1 (stereo not shown) [Example 22, 3,5-Bistrifluoromethylbenzyl-[2-(2-methoxyphenyl)-2-(4-benzylpiperazine-1-yl)-ethyl]-amine]
9 | 190 | COc1ccccc1C(CNC(=O)Nc1cc(C(F)(F)F)cc(C(F)(F)F)c1)N1CCN(Cc2ccccc2)CC1 (stereo not shown) [Example 147]
10 | 16 | COc1ccccc1C(CNCCc1cc(C(F)(F)F)cc(C(F)(F)F)c1)N1CCN(C2CCCCCC2)CC1 (stereo not shown) [Example 69, 2-(3,5-Bistrifluoromethylphenyl)-2'-(2-methoxyphenyl)-2'-(4-cycloheptylpiperazine-1-yl)-diethylamine]
11 | 36 | COc1ccccc1C(CNC(=O)Nc1cc(C(F)(F)F)cc(C(F)(F)F)c1)N1CCN(C2CCCCCC2)CC1 (stereo not shown) [Example 120, N-3,5-Bistrifluoromethylphenyl-N'-[2-(2-methoxyphenyl)-2-(4-cycloheptylpiperazine-1-yl)-ethyl]-urea]
12 | 108 | COc1ccccc1C(CNCc1cc(C(F)(F)F)cc(C(F)(F)F)c1)N1CCN(C(C)c2ccccc2)CC1 (stereo not shown) [Example 23, 3,5-Bistrifluoromethylbenzyl-[2-(2-methoxyphenyl)-2-(4-(1-phenylethyl)-piperazine-1-yl)-ethyl]-amine]
13 | 7 | COc1ccccc1C(CNCc1cc(C(F)(F)F)cc(C(F)(F)F)c1)N1CCN(CCc2ccccc2)CC1 (stereo not shown) [Example 26, 3,5-Bistrifluoromethylbenzyl-[2-(2-methoxyphenyl)-2-(4-(2-phenylethyl)-piperazine-1-yl)-ethyl]-amine]
14 | 15 | O=C(NCC(c1ccc(Cl)c(Cl)c1)N1CCN(C2CCCCC2)CC1)Nc1cc(C(F)(F)F)cc(C(F)(F)F)c1 (stereo not shown) [Example 117, N-3,5-Bistrifluoromethylphenyl-N'-[2-(3,4-dichlorophenyl)-2-(4-cyclohexylpiperazine-1-yl)-ethyl]-urea]
15 | 119 | COc1ccccc1C(CNCc1cc(C(F)(F)F)cc(C(F)(F)F)c1)N1CCN(c2ccc3ccccc3n2)CC1 (stereo not shown) [Example 29, 3,5-Bistrifluoromethylbenzyl-[2-(2-methoxyphenyl)-2-(4-(2-quinolinyl)-piperazine-1-yl)-ethyl]-amine]
16 | 490 | COc1ccccc1NC(=O)NCC(c1ccccc1)N1CCN(C2CCCCC2)CC1 (stereo not shown) [Example 114, N-2-Methoxyphenyl-N'-[2-phenyl-2-(4-cyclohexylpiperazine-1-yl)-ethyl]-urea]
17 | 273 | COc1ccccc1C(CNC(=O)Cc1ccccc1C(F)(F)F)N1CCN(C2CCCCC2)CC1 (stereo not shown) [Example 64, N-[2-(2-Methoxyphenyl)-2-(4-cyclohexylpiperazine-1-yl)-ethyl]-2-(2-trifluoromethylphenyl)-acetamide]

Row | Ki [nM] | Structure (SMILES)
18 | 111 | COc1ccccc1C(CNCc1cc(C(F)(F)F)cc(C(F)(F)F)c1)N1CCN(Cc2ccc3c(c2)OCO3)CC1 (stereo not shown) [Example 27, 3,5-Bistrifluoromethylbenzyl-[2-(2-methoxyphenyl)-2-(4-(3,4-methylenedioxybenzyl)-piperazine-1-yl)-ethyl]-amine]
19 | 84 | COc1ccccc1C(CNC(=O)Nc1cc(C(F)(F)F)cc(C(F)(F)F)c1)N1CCC(C)CC1 (stereo not shown) [Example 170]
20 | 23 | COc1ccccc1C(CNC(=O)c1cc(C(F)(F)F)cc(C(F)(F)F)c1)N1CCN(C2CCCCC2)CC1 (stereo not shown) [Example 58, N-[2-(2-Methoxyphenyl)-2-(4-cyclohexylpiperazine-1-yl)-ethyl]-3,5-bistrifluoromethylbenzamide]
21 | 52 | COc1ccccc1C(CNCc1cc(C(F)(F)F)cc(C(F)(F)F)c1)N1CCC(C)CC1 (stereo not shown) [Example 82, 3,5-Bistrifluoromethylbenzyl-[2-(2-methoxyphenyl)-2-(4-methylpiperidine-1-yl)-ethyl]-amine]
22 | 700 | COc1ccccc1C(CNC(=O)c1cc(C(F)(F)F)cc(C(F)(F)F)c1)N1CCCCC1 (stereo not shown) [Example 75, N-[2-(2-Methoxyphenyl)-2-piperidin-1-yl-ethyl]-3,5-bistrifluoromethylbenzamide]
23 | 20 | COc1ccccc1C(CNCc1cc(C(F)(F)F)cc(C(F)(F)F)c1)N1CCN(CCC2CCCCC2)CC1 (stereo not shown) [Example 54, 3,5-Bistrifluoromethylbenzyl-[2-(2-methoxyphenyl)-2-(4-(2-cyclohexylethyl)-piperazine-1-yl)-ethyl]-amine]
24 | 333 | COc1ccccc1C(CNCc1cc(C(F)(F)F)cc(C(F)(F)F)c1)N1CCN(c2ccccc2)CC1 (stereo not shown) [Example 1, 3,5-Bistrifluoromethylbenzyl-[2-(2-methoxyphenyl)-2-(4-phenylpiperazine-1-yl)-ethyl]-amine]
25 | 18 | FC(F)(F)c1cc(CNCC(c2ccccc2)N2CCN(C3CCCCC3)CC2)cc(C(F)(F)F)c1 (stereo not shown) [Example 36, 3,5-Bistrifluoromethylbenzyl-[2-phenyl-2-(4-cyclohexylpiperazine-1-yl)-ethyl]-amine]
26 | 368 | COc1ccccc1C(CNCc1cc(C(F)(F)F)cc(C(F)(F)F)c1)N1CCCC(c2ccccc2)C1 (single isomer, unassigned) [Example 86, 3,5-Bistrifluoromethylbenzyl-[2-(2-methoxyphenyl)-2-(3-phenylpiperidine-1-yl)-ethyl]-amine]
27 | 37 | FC(F)(F)c1cc(CNCC(c2ccc(Cl)c(Cl)c2)N2CCN(C3CCCCC3)CC2)cc(C(F)(F)F)c1 (stereo not shown) [Example 49, 3,5-Bistrifluoromethylbenzyl-[2-(3,4-dichlorophenyl)-2-(4-cyclohexylpiperazine-1-yl]-ethyl]-amine]
28 | 905 | COc1ccccc1C(CNC(=O)Nc1cc(C(F)(F)F)cc(C(F)(F)F)c1)N1CCN(c2ccc3ccccc3n2)CC1 (stereo not shown) [Example 158, N-3,5-Bistrifluoromethylphenyl-N'-[2-(2-methoxyphenyl)-2-(4-(2-quinolinyl)piperazine-1-yl)-ethyl]-urea]
29 | 580 | COc1ccccc1C(CNCc1cc(C(F)(F)F)cc(C(F)(F)F)c1)N1CCN(c2ccccc2C)CC1 (stereo not shown) [Example 19, 3,5-Bistrifluoromethylbenzyl-[2-(2-methoxyphenyl)-2-(4-(2-methylphenyl)-piperazine-1-yl)-ethyl]-amine]
30 | 10 | COc1ccccc1C(CNC(=O)Nc1cc(C(F)(F)F)cc(C(F)(F)F)c1)N1CCC(N2CCCCC2)CC1 (stereo not shown) [Example 177, N-3,5-Bistrifluoromethylphenyl-N'-[2-(2-methoxyphenyl)-2-(4-piperidin-1-yl)-piperidin-1-yl-ethyl]-urea]
31 | 1000 | O=C(NCC(c1ccccc1)N1CCN(C2CCCCC2)CC1)Nc1ccccc1 (stereo not shown) [Example 112, N-Phenyl-N'-[2-phenyl-2-(4-cyclohexylpiperazine-1-yl)-ethyl]-urea]
32 | 34 | CCCN1CCN(C(CNC(=O)Nc2cc(C(F)(F)F)cc(C(F)(F)F)c2)c2ccccc2OC)CC1 (stereo not shown) [Example 108, N-3,5-Bistrifluoromethylphenyl-N'-[2-(2-methoxyphenyl)-2-(4-(1-propyl)piperazine-1-yl)-ethyl]-urea]
33 | 250 | COc1ccccc1C(CNC(=O)Cc1cc(C(F)(F)F)cc(C(F)(F)F)c1)N1CCCCC1 (stereo not shown) [Example 78, N-[2-(2-Methoxyphenyl)-2-piperidin-1-yl-ethyl]-2-(3,5-bistrifluoromethylphenyl)acetamide]
34 | 2 | COc1ccccc1C(CNCc1cc(C(F)(F)F)cc(C(F)(F)F)c1)N1CCC(N2CCCCC2)CC1 (stereo not shown) [Example 91]
